In patent publication US20160017326A1, “MICRORNAS AS FUNCTIONAL MEDIATORS AND BIOMARKERS OF BONE METASTASIS” (THE TRUSTEES OF PRINCETON UNIVERSITY, priority 2013, published 2016):

Legend:
[1] = system: Pu.1, Nfatc1, Ctsk in RAW264.7 cells; test: Western blot of Pu.1, Nfatc1, Ctsk after miRNA transfection and RANKL; type: cell-based, murine; settings: transient miRNA transfection, 50 ng/ml RANKL
Method: SDS lysis buffer (0.05 mM Tris-HCl, 50 mM BME, 2% SDS, 0.1% Bromophenol blue, 10% glycerol) was used to collect protein from cells. Samples were sonicated and heat denatured protein was equally loaded, separated on a 10% SDS-page gel, transferred onto a pure nitrocellulose membrane (BioRad), and blocked with 5% milk. Primary antibodies for immunoblotting included: anti-IκBα (1:1000 dilution, Cell signaling, 44D4), anti-p-p65 (1:500 dilution, Santa Cruz Biotechnology), anti-Pu.1 (5 μg/ml, Abcam, AB88082), anti-Nfatc1 (1 μg/ml, Abcam, AB25916), anti-Ctsk (4 μg/ml, Abcam, AB19027), anti-β-actin (1:5000 dilution, ABcam), for loading control. Membranes were incubated with horseradish peroxidase (HRP)-conjugated anti-mouse secondary antibody (1:2000 dilution, GE Healthcare) or anti-rabbit secondary antibody (1:2000 dilution, GE Healthcare) for 1 h and chemiluminescence signals were detected by ECL substrate (GE Healthcare).
To better examine the capacity of the miRNAs to inhibit osteoclast differentiation, osteoclast markers were examined in RAW264.7 cells transfected with the miRNA of interest, followed by RANKL treatment. FIG. 5F illustrates Western blot analysis for Pu.1, Nfatc1, or Ctsk in RAW264.7 cells after transient transfection with indicated miRNA and treatment with 50 ng/ml RANKL. Data in the figure represent average ±SEM; p values were based on Student's t-test.

Balb/c mice = test: Systemic pre-miRNA treatment of healthy mice: X-ray, microCT, histology; type: in vivo, mouse; settings: for osteoclast activity in vivo: intravenous injection; for number of osteoclasts relative to bone surface area (TRAP): 10 μg pre-miRNA i.v. weekly for four weeks
Source text: (§1) Hindlimb bones were excised from mice at the end point of each experiment, immediately following X-ray and BLI. Hind limb bones were fixed in 10% neutral-buffered formalin, washed and decalcified in a solution of 10% EDTA for 2 weeks. One limb from each mouse was stored in 70% ethanol for μCT analysis and Von Kossa staining, while the other limb was embedded in paraffin for hematoxylin and eosin (H&E), tartrate-resistant acid phosphatase (TRAP), or immunohistochemical staining. Non-decalcified sections were embedded in resin using the Osteo-bed Bone Embedding Kit (Sigma Aldrich, EM0200) before sectioning, followed by Von Kossa staining. Briefly, sections were rehydrated to H2O, followed by submersion in 1% silver nitrate and exposure to UV light for 5 minutes. Sections were then incubated in 2.5% Sodium Thiosulphate, followed by counterstaining with Nuclear Fast Red and dehydration through Xylene. Histomorphometric analysis was performed on H&E stained bone metastasis sections using the Zeiss Axiovert 200 microscope and the AxioVision software version 4.6.3 SP1. For quantitative analysis of lesion area, a 5× objective was used to focus on the tumor region of interest and images were acquired using an AxioCamICc3 camera set to an exposure of 50 ms. Lesions that were larger than the field of view were quantified by acquiring multiple images to encompass the entire lesion and combined in Adobe Photoshop CS5. Lesion area was quantified by outlining the region(s) of interest and quantifying lesion area. Osteoclast number was assessed as multinucleated TRAP^+ cells along the tumor-bone interface and reported as number/mm of interface as previously reported (Sethi et al., 2011). Immunohistochemical analysis was performed with heat-induced antigen retrieval and an osteocalcin antibody (ABcam, AB93876). A biotinylated secondary antibody was used with Vectastain ABC Kit (Vector Laboratories) and DAB detection kit (Zymed) to reveal the positively stained cells; nuclei were counterstained with hematoxylin
(§2) Anesthetized mice were placed on singlewrapped films (X-OMAT AR, Eastman Kodak) and exposed to X-ray radiography at 35 kV for 15 s using a MX-20 Faxitron instrument. Films were developed using a Konica SRX-101A processor. Changes in bone remodeling and osteolytic lesions (radiolucent lesions) in the hindlimbs of mice were identified and quantified using the ImageJ software (National Institutes of Health)
Femurs and tibias were scanned using the INVEON PET/CT (Siemens Healthcare) at the Preclinical Imaging Shared Resource of Cancer Institute of New Jersey. The X-Ray tube settings were 80 kV and 500 μA and images were acquired at the highest resolution without CCD binning, resulting in a voxel size of 9.44 μm. A 0.66° rotation step through a 195° angular range with 6500 msec exposure was used. The images were reconstructed with Beam Hardening Correction and Hounsfield calibration before being analyzed using the INVEON Research Workplace software (Siemens Healthcare). After processing with a 3D Gaussian filter to reduce noise ROI's were manually segmented that corresponded to the cortical and trabecular bone regions. Cortical regions of interest comprised of 470 μm thick regions (50 slices, 9.4 μm thickness for each slice) located 3 mm distal to the growth plate, while 300 μm thick trabecular sections began 0.27 mm distal to the growth plate.
To evaluate the capacity for these miRNAs to inhibit mouse osteoclast function in vivo, 10 μg of pre-miRNA were injected into the lateral tail-vein of Balb/c mice weekly for four weeks. […] FIG. 6A illustrates representative X-ray, μCT and histological images for TRAP, H&E, Von Kossa, or osteocalcin staining of bones from mice treated with miR-33a, miR-133a, miR-141, miR-190 and miR-219 compared to non-treated control. Regions of interest for trabecular and cortical bone scan and analysis are marked by dashed lines. Scale bar indicates 200 μm, n=6. […]

[2] = system: SCP28 breast cancer cells; test: Experimental bone metastasis: intracardiac SCP28 cells in nude mice, BLI, X-ray, histology; type: in vivo, mouse; settings: for osteolytic bone lesions (X-ray): hindlimbs, pre-miRNA treated; for hind-limb tumor burden / metastatic progression by BLI: pre-miRNA 10 μg/mouse i.v. before and once per week after SCP28 inoculation; for osteolytic bone metastasis: summary statement; for TRAP+ osteoclast number: histology, tumor-bone interface
Source text: as §1, §2
All procedures involving mice and experimental protocols were approved by Institutional Animal Care and Use Committee (IACUC) of Princeton University. For bone metastasis studies, 1×10^5 tumor cells were injected into the left cardiac ventricle of anesthetized female athymic Ncr-nu/nu. MiRNA precursors (10 μg/mouse in 100 μl PBS, Applied Biosystems) and Zometa (100 μg/kg) were injected intravenously. Development of metastases was monitored by measuring photon flux of BLI signals in the hindlimbs of mice after retro-orbital injection of 75 mg/kg D-Luciferin and image acquisition using the Xenogen IVIS 200 Imaging System. Data were normalized to the signal on day 0. X-ray examination was performed as previously described (Kang et al., 2003).
After further validating the ability of highly metastatic SCP28 to induce osteoclastogenesis in MOCP5 cells, SCP28 were used for analyzing the effect of miRNAs on bone metastasis development in mice. FIG. 7E illustrates representative images of MOCP-5 cells treated with MDA-MB-231 and SCP28 CMs. Scale bar represents 200 μm. FIGS. 7F and 7G illustrate quantification of osteoclast number and nuclei per osteoclast after MOCP-5 cells were treated with indicated CM as in FIG. 7C. Results were statistically significant with p<0.001 (***) as assessed by Student's t test. Nude mice were systemically treated with control or experimental pre-miRNAs immediately before, and once per week subsequently, after inoculation with SCP28 cells via intracardiac injection. […]

Substance | expression of Pu.1, Nfatc1, Ctsk (Western blot) [1] | osteoclast activity in vivo (Balb/c mice) | osteolytic bone lesions (X-ray) [2] | hind-limb tumor burden / metastatic progression by BLI [2] | osteolytic bone metastasis [2] | number of osteoclasts relative to bone surface area (TRAP) (Balb/c mice) | TRAP+ osteoclast number [2]
miR-133a: miRNA, SEQ ID NO: 61; delivered as pre-miRNA precursor; targets Mitf and Mmp14 (UUUGGUCCCCUUCAACCAGCUA; delivered as pre-miRNA precursor, chemistry not given here; listed as Homo sapiens) | inhibited early osteoclast differentiation, with minimal expression of Nfatc1 | significantly reduced | significant bone degradation | no effect | no measurable effect |  | 
miR-141: miRNA, SEQ ID NO: 69; delivered as pre-miRNA precursor; targets Mitf and Calcr (UAACACUGUCUGGUAACGAUGU; delivered as pre-miRNA precursor, chemistry not given here; listed as Homo sapiens) | inhibited early osteoclast differentiation, with minimal expression of Nfatc1 | significantly reduced | decreased bone lesions | significant decrease in metastatic burden | capable of inhibiting | significant decrease | significant decrease
miR-190: miRNA, SEQ ID NO: 64; delivered as pre-miRNA precursor; targets Calcr (UGAUAUGUUUGAUAUAUUAGGU; delivered as pre-miRNA precursor, chemistry not given here; listed as Homo sapiens) | expressed Pu.1 and Nfatc1, but not Ctsk | significantly reduced | significant bone degradation | no effect | no measurable effect |  | significant decrease
miR-219: miRNA, SEQ ID NO: 66; delivered as pre-miRNA precursor; targets Mitf and Traf6 (UGAUUGUCCAAACGCAAUUCU; delivered as pre-miRNA precursor, chemistry not given here; listed as Homo sapiens) | inhibited early osteoclast differentiation, with minimal expression of Nfatc1 | significantly reduced | decreased bone lesions | significant decrease in metastatic burden | capable of inhibiting | significant decrease | significant decrease
